One series deals with HIV. The series is described as follows: MTT-based antiviral assay, HIV in MT-4 cells. The class given is cell-based, human immunodeficiency virus. The settings on record: maximum concentration of 100 μM, data not shown.
For series [1], the system named is PR8 virus. The class given is cell-based, influenza A virus.
In series [2] the test system is PR8 virus. The class given is cell-based, influenza A virus. This is another data set of the same source.
For the next series, the target named is PR8 NA (Influenza A virus, UniProt P03468). The series is described as follows: biochemical.
For the next series, the system named is FECV. The series is described as follows: MTT-based antiviral assay, FECV in CrFK cells. The class given is cell-based, feline coronavirus. The settings on record: maximum concentration of 100 μM, data not shown. On the technique in general: Tetrazolium assays rely on reduction of a dye to a coloured formazan, in cell work by metabolically active cells.
For the next series, the system named is CoxB. The series is described as follows: MTT-based antiviral assay, CoxB in HeLa cells. The class given is cell-based, Coxsackie B virus. Particulars: maximum concentration of 100 μM, data not shown.
Another series concerns HSV. The series is described as follows: MTT-based antiviral assay, HSV in Vero cells. The class given is cell-based, herpes simplex virus. The settings on record: maximum concentration of 100 μM, data not shown.
In series [3] the test system is wild-type NA derived from influenza H1N1 (A/California/04/2009). The class given is biochemical.
Series [4] deals with PR8-derived viral RNA polymerase (Influenza A virus, UniProt P03428+P03431+P03433). The series is classed as cell-based. The settings on record: 11, 33 and 100 μM, Vero cells, FLuc normalized against RLuc, day 1.
Another series can be described thus: in vitro. Particulars: dog.
The subject of series [5] is PR8 virus NP and HA protein. The class given is cell-based, influenza A virus. The settings on record: 11, 33 and 100 μM, 24 h at 35 °C.
In series [6] the test system is influenza A/H1N1, A/H3N2 and B viruses. The series is described as follows: CPE reduction assay / screen, stated for the three influenza viruses together. The class given is cell-based. Particulars: Influenza A virus, H1N1|H3N2, read-out: virus growth inhibition.
In the next series the test system is B/Lee/40. The series is classed as cell-based, influenza B virus.
The test system of series [7] is pore-forming glycoprotein perforin. Particulars: previous study, ref Lena et al., 2008; cited from earlier work.
For series [8], the system named is A/Puerto Rico/8/34 (H1N1; PR8). The series is described as follows: organism not typed. The class given is cell-based, influenza A virus. Particulars: for EC50: MDCK, 72 h, read-out: EC50 for influenza virus A/Puerto Rico/8/34.
A further series relates to A/Hong Kong/8/68 (H3N2). The series is described as follows: organism not typed. The class given is cell-based, influenza A virus. The settings on record: for EC50: MDCK, 72 h, read-out: EC50 for influenza virus A/Hong Kong/8/68.
Another series deals with PR8 virus entry. The series is described as follows: Confocal microscopy of viral NP. The settings on record: 100 μM, MOI 2.5, 2 h at 37 °C, MDCK cells.
The test system of series [9] is PR8 virus. The series is classed as cell-based, influenza A virus. This is another data set of the same source.

Here are results for six compounds from article PMC7113773 (Antiviral Research, 2014).

What is called IC50 is the concentration needed to halve the response being measured. High values mean a need for much substance, low ones inhibition by little substance. By inhibition is commonly meant the share of the control response that was lost under treatment.

With `Cc1cc2c(c(=S)[nH]1)C(=O)O/C2=C\c1c[nH]c2ccc(F)cc12` [Compound 15a, (Z)-1-((5-Fluoro-1H-indol-3-yl)methylene)-6-methyl-4-thioxo-4,5-dihydrofuro[3,4-c]pyridin-3(1H)-one], the “antiviral activity against HIV” value with HIV is “no antiviral activity was detected”. For the same compound, the “vRNA levels in culture supernatants” value in the series on PR8 virus [1] is listed as “significantly inhibited”. For the same compound, the “plaque titer (infectious viral titers)” value with PR8 virus [2] was “significantly inhibited”. On PR8 NA, 0.6 ± 0.1 µM corresponded to half-maximal inhibition (IC50). Also, the “antiviral activity against FECV” value in the series on FECV is “no antiviral activity was detected”. Further, in the series with CoxB, the “antiviral activity against CoxB” value is listed as “no antiviral activity was detected”. In the series on HSV, the “antiviral activity against HSV” value is recorded as “no antiviral activity was detected”. For the same compound, the “function of wild-type NA” value in series [3] is recorded as “suppressed”. Also, the “viral RNA polymerase function” value in series [4] is given as “not changed”. The CC50 in the series “in vitro” was above 900 µM. Also, the “viral protein level (NP, HA) in cells” value in [5] is listed as “Reduction of the influenza viral protein level”. The inhibition at 20 µM in series [6] was above 50%.
As for `Cc1cc2c(c(=S)[nH]1)C(=O)O/C2=C\c1cc2ccccc2s1` [Compound 15g, (Z)-1-(Benzo[b]thiophen-2-ylmethylene)-6-methyl-4-thioxo-4,5-dihydrofuro[3,4-c]pyridin-3(1H)-one], the “antiviral activity against HIV” value with HIV is “no antiviral activity was detected”. Further, the “vRNA levels in culture supernatants” value in the series on PR8 virus [1] is on record as “significantly inhibited”. Further, the “S.I. (selectivity index, CC50/EC50), B/Lee/40” value in the series on B/Lee/40 was 18.4 ± 12.8 (>48.9). For the same compound, the “plaque titer (infectious viral titers)” value in the series on PR8 virus [2] is “significantly inhibited”. Further, in series [7], the “inhibitory effect on cell lysis induced by perforin” value is reported as “active”. Besides, in the series with FECV, the “antiviral activity against FECV” value is listed as “no antiviral activity was detected”. Moreover, in series [8], the “S.I. (selectivity index, CC50/EC50), A/Puerto Rico/8/34” value was 16.1 ± 6.0 (>55.9) and the EC50 was found to be 16.1 µM. The “antiviral activity against CoxB” value in the series on CoxB is listed as “no antiviral activity was detected”. The “antiviral activity against HSV” value with HSV is listed as “no antiviral activity was detected”. Further, in the series on A/Hong Kong/8/68 (H3N2), the “S.I. (selectivity index, CC50/EC50), A/Hong Kong/8/68” value was 10.5 ± 5.0 (>85.7) and the EC50 is 10.5 µM. Further, the CC50 in the series “in vitro” was above 900 µM. Besides, the “viral protein level (NP, HA) in cells” value in [5] is “Reduction of the influenza viral protein level”.
Turning to `Cc1cc2c(c(=S)[nH]1)C(=O)O/C2=C\c1cccs1` [Compound 15q, (Z)-6-Methyl-1-(thiophen-2-ylmethylene)-4-thioxo-4,5-dihydrofuro[3,4-c]pyridin-3(1H)-one], the “antiviral activity against HIV” value with HIV was “no antiviral activity was detected”. Also, the “vRNA levels in culture supernatants” value in the series with PR8 virus [1] is listed as “significantly inhibited”. Further, in the series with B/Lee/40, the “S.I. (selectivity index, CC50/EC50), B/Lee/40” value is recorded as 7.0 ± 3.8 (>128.6). Besides, the “plaque titer (infectious viral titers)” value in the series with PR8 virus [2] is reported as “significantly inhibited”. Besides, the IC50 at PR8 NA amounted to 1.5 ± 0.4 µM. Further, the “inhibitory effect on cell lysis induced by perforin” value in series [7] was “active”. In addition, the “NP signal, distribution and intensity in cells” value in the series with PR8 virus entry is “not affected”. In the series on FECV, the “antiviral activity against FECV” value is recorded as “no antiviral activity was detected”. Further, in series [8], the “S.I. (selectivity index, CC50/EC50), A/Puerto Rico/8/34” value is listed as 7.5 ± 3.2 (>120.0) and the EC50 is 7.5 µM. Further, the “antiviral activity against CoxB” value in the series on CoxB is listed as “no antiviral activity was detected”. In addition, the “antiviral activity against HSV” value with HSV is reported as “no antiviral activity was detected”. In addition, the “viral RNA polymerase function” value in series [4] was “not changed”. Also, in the series on A/Hong Kong/8/68 (H3N2), the “S.I. (selectivity index, CC50/EC50), A/Hong Kong/8/68” value was 6.8 ± 1.3 (>132.4) and the EC50 came out at 6.8 µM. The compound further gave a CC50 in the series “in vitro” above 900 µM. For the same compound, in series [5], the “viral protein level (NP, HA) in cells” value is listed as “Reduction of the influenza viral protein level”.
As to `NC(=O)c1nc(F)c[nH]c1=O` [Compound T-705, 6-flouro-3-hydroxy-2-pyrazinecarboxamide, reference compound], the “HA titer” value in the series on PR8 virus [9] was determined as 8 HAU/50 μl. Further, the EC50 in series [8] amounted to 4.3 ± 2.4 µM; in the series on A/Hong Kong/8/68 (H3N2), 6.5 ± 1.7 µM. In addition, the “viral RNA polymerase function” value in series [4] is given as “suppressed”. The compound also returned a CC50 in “in vitro” above 100 µM.
Regarding `O=C(O[C@@H]1Cc2c(O)cc(O)cc2O[C@@H]1c1cc(O)c(O)c(O)c1)c1cc(O)c(O)c(O)c1` [EGCG, (−)-epigallocatechin-3-gallate, reference compound], the “NP signal, distribution and intensity in cells” value in the series on PR8 virus entry is recorded as “reduced the overall NP signal intensity”.
Regarding `CCC(CC)O[C@@H]1C=C(C(=O)O)C[C@H](N)[C@H]1NC(C)=O` [Oseltamivir carboxylate, oseltamivir carboxylate, reference compound], the “HA titer” value with PR8 virus [9] was “no detection”. For the same compound, the EC50 in series [8] was 0.03 ± 0.01 µM; in the series on A/Hong Kong/8/68 (H3N2), below 0.01 µM. Besides, the CC50 in the series “in vitro” was above 100 µM.
